Experimental findings from US20260138961A1, “MODULATORS OF MITOCHONDRIAL DNA REPLICATION” (Pretzel Therapeutics, Inc., priority 2022, published 2026) are described below.

The first assay concerns the target T1, wild type human POLγ (POLγA:WT) (Homo sapiens, UniProt P54098).
T1 sequence (P54098 1-1239): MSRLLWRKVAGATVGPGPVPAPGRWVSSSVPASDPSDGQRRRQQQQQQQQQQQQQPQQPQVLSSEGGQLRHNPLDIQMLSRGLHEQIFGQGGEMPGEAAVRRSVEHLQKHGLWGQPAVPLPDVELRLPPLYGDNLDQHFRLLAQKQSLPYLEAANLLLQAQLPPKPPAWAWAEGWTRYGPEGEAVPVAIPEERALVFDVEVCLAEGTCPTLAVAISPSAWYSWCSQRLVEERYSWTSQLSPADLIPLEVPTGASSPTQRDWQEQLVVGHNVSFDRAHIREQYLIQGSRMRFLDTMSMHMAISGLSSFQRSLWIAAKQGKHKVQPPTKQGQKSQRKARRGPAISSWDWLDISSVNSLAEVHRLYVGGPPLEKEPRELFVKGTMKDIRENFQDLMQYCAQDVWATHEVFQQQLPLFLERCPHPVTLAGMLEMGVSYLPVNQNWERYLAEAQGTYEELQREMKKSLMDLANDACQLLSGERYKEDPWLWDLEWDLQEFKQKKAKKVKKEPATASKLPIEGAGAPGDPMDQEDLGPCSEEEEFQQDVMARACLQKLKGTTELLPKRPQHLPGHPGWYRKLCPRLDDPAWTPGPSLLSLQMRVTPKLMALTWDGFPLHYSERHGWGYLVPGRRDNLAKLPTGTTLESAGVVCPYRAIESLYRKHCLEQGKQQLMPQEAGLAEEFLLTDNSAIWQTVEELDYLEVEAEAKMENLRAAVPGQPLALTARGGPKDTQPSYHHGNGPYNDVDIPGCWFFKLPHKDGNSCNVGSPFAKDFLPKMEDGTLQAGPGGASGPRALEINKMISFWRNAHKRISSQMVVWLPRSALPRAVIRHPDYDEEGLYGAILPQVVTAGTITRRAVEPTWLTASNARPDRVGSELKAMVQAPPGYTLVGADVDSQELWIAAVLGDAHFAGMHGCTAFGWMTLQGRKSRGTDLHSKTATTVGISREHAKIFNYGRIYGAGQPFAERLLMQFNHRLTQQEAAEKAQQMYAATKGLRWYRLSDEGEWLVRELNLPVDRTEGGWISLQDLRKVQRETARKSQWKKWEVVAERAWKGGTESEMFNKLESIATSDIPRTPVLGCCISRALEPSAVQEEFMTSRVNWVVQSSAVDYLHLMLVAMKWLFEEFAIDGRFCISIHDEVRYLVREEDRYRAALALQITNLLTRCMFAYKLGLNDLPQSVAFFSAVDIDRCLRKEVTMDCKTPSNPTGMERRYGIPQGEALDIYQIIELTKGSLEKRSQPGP
T1 sequence (Q9UHN1 1-485 partner): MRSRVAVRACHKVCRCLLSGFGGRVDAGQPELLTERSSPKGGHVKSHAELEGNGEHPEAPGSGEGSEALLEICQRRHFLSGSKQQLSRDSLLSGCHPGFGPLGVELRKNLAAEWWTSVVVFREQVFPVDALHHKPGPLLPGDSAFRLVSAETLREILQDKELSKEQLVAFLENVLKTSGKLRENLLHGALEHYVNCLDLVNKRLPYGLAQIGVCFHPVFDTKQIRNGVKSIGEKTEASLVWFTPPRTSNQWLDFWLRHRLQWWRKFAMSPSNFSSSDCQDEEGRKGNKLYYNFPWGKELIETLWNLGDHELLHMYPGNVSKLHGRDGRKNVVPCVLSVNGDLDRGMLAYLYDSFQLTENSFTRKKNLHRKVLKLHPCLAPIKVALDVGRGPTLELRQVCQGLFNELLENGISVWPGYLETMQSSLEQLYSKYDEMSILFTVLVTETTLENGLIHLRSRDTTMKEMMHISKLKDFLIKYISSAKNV
In words: DNA polymerization assay, wild type POLγ. As to conditions: 0.1 μM dNTP, read-out: WT AC50 (μM) at 0.1 μM. It counts as biochemical. The protocol:
DNA Polymerization Assay to Monitor Effects on Human Wildtype POLγ and Four Disease-Causing Mutant Variants of Human POLγ.
The ability of small molecules to stimulate the polymerase activity of POLγ was analyzed in a quantitative fluorescence SYBR Green I assay with fluorescence intensity (FI) readout.
In the presence of dNTPs, wild type human POLγ and mutant derivatives thereof were incubated with single-stranded, circular M13mp18 ssDNA hybridized to a short DNA oligonucleotide that functions as a primer for initiation of DNA synthesis. POLγ and mutant derivatives thereof will extend the primer and use the M13mp18 molecule as a template to synthesize long stretches of double-stranded DNA. SYBR Green I, which is a double-stranded DNA-binding dye, was used to quantify formation of double-stranded DNA in the reaction. When bound to double-stranded DNA, SYBR Green I fluorescence increases by up to 100-fold.
The assay was performed in the 384-well plate format. Upon addition of compounds, changes in double-stranded DNA synthesis activity can be monitored by following effects on fluorescent intensity.
The reactions also contained the accessory POLγB subunit, and the human mitochondrial single-stranded DNA binding protein (mtSSB).
The DNA template mixture used in the assay contained 0.5 nM primed M13 mp18 ssDNA, 400 nM mtSSB, 0.1 mM Tris-HCl (pH 8.0), 0.1 mM dNTP, 10 mM MgCl2, 0.1 mg/mL BSA, 1 mM TCEP solution, and 0.02% Triton X-100. The DNA template mixture for the wild type protein contained either 100 μM dNTP, 1 μM dNTP, or 0.1 μM dNTP, designated in Table 2 as 100 μM, 1 μM, and 0.1 μM, respectfully.
Microplates with compounds (0.1 μL in each well) to be tested in the assay were prepared from 10 mM compound stocks in 100% DMSO, and equal amounts of DMSO without any compound were added to positive and negative control wells.
The protein mixture was dispensed (5 μL into each well) into compound plates and incubated at 37° C. for 15 minutes. After incubation, 5 μL of the DNA template mixture was dispensed into each well. The plates were then incubated at 37° C. for 2 hours.
During incubation, a combined stop buffer and detection reagent solution was prepared. The buffer contained 25 mM EDTA (pH 8.0), 0.02% Triton X-100, and SYBR Green I [Invitrogen] diluted 10,000× (for fluorescent readout). EDTA will stop the enzymatic reaction by chelating magnesium ions.
`Cc1cnc(-c2ccc(Cl)c(NS(=O)(=O)c3cc(C)c(Cl)cc3C)c2)s1` [Example 102, 4-chloro-N-(2-chloro-5-(5-methylthiazol-2-yl)phenyl)-2,5-dimethylbenzenesulfonamide]: the AC50 came out at 5 µM.
Still for that read-out and setting: as for `Cc1cnc(-c2cc(NS(=O)(=O)c3cc(C)c(Cl)cc3C)ccc2C)s1` [Example 103, 4-chloro-2,5-dimethyl-N-(4-methyl-3-(5-methylthiazol-2-yl)phenyl)benzenesulfonamide], the figure is 17 µM.

Still in this assay, the particulars now being: 100 μM dNTP, read-out: WT AC50 (μM) at 100 μM.
Turning to `Cc1cc(S(=O)(=O)Nc2cccc(C(=O)N3CCc4cn[nH]c4C3)c2)c(C)cc1Cl` [Example 107, 4-chloro-2,5-dimethyl-N-(3-(4,5,6,7-tetrahydro-1H-pyrazolo[3,4-c]pyridine-6-carbonyl)phenyl)benzenesulfonamide], the AC50 was found to be 1 µM.
As to “(R)-2,5-dimethyl-N-(3-(3-methylmorpholine-4-carbonyl)phenyl)benzenesulfonamide [Example 1]”, the AC50 came to 2 µM.
On the same count and under the same terms, under `Cc1cnc(-c2ccc(Cl)c(NS(=O)(=O)c3cc(C)c(Cl)cc3C)c2)s1` [Example 102, 4-chloro-N-(2-chloro-5-(5-methylthiazol-2-yl)phenyl)-2,5-dimethylbenzenesulfonamide] stands above 10 µM; under `Cc1cc(S(=O)(=O)Nc2cccc(C(=O)N(C)C(C)CO)c2)c(C)cc1Cl` (single isomer, unassigned) [Example 14, 3-((4-chloro-2,5-dimethylphenyl)sulfonamido)-N-(1-hydroxypropan-2-yl)-N-methylbenzamide], above 100 µM; under `Cc1cc(S(=O)(=O)N[C@@H]2CCCN(C(=O)[C@@H]3CCCN3C)C2)c(C)cc1Cl` [Example 104, 4-chloro-2,5-dimethyl-N-((R)-1-(methyl-L-prolyl)piperidin-3-yl)benzenesulfonamide], above 10 µM.
On the same count and under the same terms, under `Cc1cnc(-c2cc(NS(=O)(=O)c3cc(C)c(Cl)cc3C)ccc2Cl)s1` [Example 111, 4-chloro-N-(4-chloro-3-(5-methylthiazol-2-yl)phenyl)-2,5-dimethylbenzenesulfonamide] stands 3 µM; under `Cc1cc(S(=O)(=O)Nc2cc(F)cc(C(=O)N3CCC[C@H]3C)c2)c(C)cc1Cl` [Example 13, (R)-4-chloro-N-(3-fluoro-5-(2-methylpyrrolidine-1-carbonyl)phenyl)-2,5-dimethylbenzenesulfonamide], 1 µM; under `Cc1ccc(C)c(S(=O)(=O)Nc2cccc(C(=O)N3CCCC[C@@H]3C)c2)c1` [Example 6, (S)-2,5-dimethyl-N-(3-(2-methylpiperidine-1-carbonyl)phenyl)benzenesulfonamide], 4 µM.
Take `Cc1cc(S(=O)(=O)Nc2cccc(C(=O)N3CCCC3)c2)c(C)cc1Cl` [Example 119, 4-chloro-2,5-dimethyl-N-(3-(pyrrolidine-1-carbonyl)phenyl) benzenesulfonamide]: the concentration at half-maximal activity (AC50) was above 10 µM.
The same measure, in the same setting: as for `Cc1cc(S(=O)(=O)Nc2cccc(C(=O)N(C(C)C)C3COC3)c2)c(C)cc1Cl` [Example 112, 3-((4-chloro-2,5-dimethylphenyl)sulfonamido)-N-isopropyl-N-(oxetan-3-yl)benzamide], the figure is 20 µM.
Still for that read-out and setting: as for `Cc1cc(F)ccc1S(=O)(=O)Nc1csc(-c2ccccc2)n1` [Example 124, 4-fluoro-2-methyl-N-(2-phenylthiazol-4-yl)benzenesulfonamide], the figure is 1 µM; as for `Cc1cc(S(=O)(=O)Nc2cccc(-c3ncc(C#N)s3)c2)c(C)cc1Cl` [Example 96, 4-chloro-N-(3-(5-cyanothiazol-2-yl)phenyl)-2,5-dimethylbenzenesulfonamide], above 10 µM; as for `Cc1cc(S(=O)(=O)Nc2cccc(-c3ccn(C)n3)c2)c(C)cc1Cl` [Example 18, 4-chloro-2,5-dimethyl-N-(3-(1-methyl-1H-pyrazol-3-yl)phenyl)benzenesulfonamide], 1 µM.
As for `CNC(=O)c1cnc(-c2cccc(NS(=O)(=O)c3cc(C)c(Cl)cc3C)c2)s1` [Example 93, 2-(3-((4-chloro-2,5-dimethylphenyl)sulfonamido)phenyl)-N-methylthiazole-5-carboxamide], the AC50 worked out at 3 µM.
Same read-out and setting: as for `Cc1cc(S(=O)(=O)Nc2cccc(C(=O)N3C[C@H](C)[C@@H](N)C3)c2)c(C)cc1Cl` [Example 108, N-(3-((3R,4S)-3-amino-4-methylpyrrolidine-1-carbonyl)phenyl)-4-chloro-2,5-dimethylbenzenesulfonamide], the figure is 24 µM; as for `Cc1cnc(-c2cc(NS(=O)(=O)c3cc(C)c(Cl)cc3C)ccc2C)s1` [Example 103, 4-chloro-2,5-dimethyl-N-(4-methyl-3-(5-methylthiazol-2-yl)phenyl)benzenesulfonamide], 1 µM.
The same measure, in the same setting: under `Cc1cc(S(=O)(=O)Nc2cccc(-c3ncco3)c2)c(C)cc1Cl` [Example 17, 4-chloro-2,5-dimethyl-N-(3-(oxazol-2-yl)phenyl)benzenesulfonamide] stands 0.6 µM.
Consider `Cc1cc(S(=O)(=O)Nc2cccc(C(=O)N3CCC[C@H]3C)c2)c(C)cc1Cl` [Example 10, (R)-4-chloro-2,5-dimethyl-N-(3-(2-methylpyrrolidine-1-carbonyl)phenyl)benzenesulfonamide], for which the AC50 came out at 0.5 µM.
Take `Cc1ccc(C)c(S(=O)(=O)Nc2cccc(C(=O)N3CCCCC3)c2)c1` [Example 3, 2,5-dimethyl-N-(3-(piperidine-1-carbonyl)phenyl)benzene sulfonamide]: the AC50 is above 100 µM.
As for `Cc1cc(S(=O)(=O)Nc2cccc(C(=O)N3CCCC4(CC4)C3)c2)c(C)cc1Cl` [Example 105, N-(3-(5-azaspiro[2.5]octane-5-carbonyl)phenyl)-4-chloro-2,5-dimethylbenzenesulfonamide], the AC50 is above 10 µM.

The assay is the same for the next values; noted with them: WT AC50 (μM) at 100 μM, 100 μM dNTP.
On to `Cc1cc(S(=O)(=O)Nc2noc(-c3ccccc3)n2)c(C)cc1Cl` [Example 142, 4-chloro-2,5-dimethyl-N-(5-phenyl-1,2,4-oxadiazol-3-yl)benzenesulfonamide], for which the half-maximal activity concentration (AC50) is above 10 µM.

By AC50 is commonly meant the midpoint of the concentration-response curve, whichever way the signal moves.
